How the values were obtained:
HES1 reporter gene = type: cell-based, S. cerevisiae; conditions: ABY140 (pdr5::KanMX yor1::KanMX) vs ABY11 wild-type
Method: To further test the viability of this indicator gene in a high-throughput screen, the regulation of the HES1 reporter was tested in two different strain backgrounds ABY11 (MATa leu2Δ1 ura3-52) is a wild-type strain.
The ABY140 [HES1] strain was used to screen approximately 16,800 chemicals from a combinatorial chemistry library. […] Twenty-four of these chemical were further tested in a secondary screen for the ability to induce four additional indicator (also referred to as reporter) genes whose expression are also coordinately regulated with genes encoding ergosterol biosynthetic enzymes.

HES1 reporter = conditions: 384-well array, various concentrations, 30° C., 24 hrs
Method: Cells were grown to mid-log phase at 30° C. in casamino acids medium (0 67% yeast nitrogen base, 2% glucose, 2% casamino acids). Cell density was adjusted prior to incubation in various concentrations of drug Arrays were incubated at 30° C. for 24 hrs prior to imaging.

yjl105w mutant strain = test: Lovastatin drug disk on yeast lawn, yjl105w mutant vs wild-type; type: cell-based, S. cerevisiae; conditions: 250 μg on sterile disk, 5×10^6 cells, overnight at 30° C.
Method: FIG. 4. Effects of lovastatin on wild-type and YJL105w knockout yeast strains. 10 μl of a 25 mg/ml solution of lovastatin (250 μg) in ethanol was applied to a sterile drug disk on a lawn of yeast (5×10^6 cells, ABY363). The plates were incubated overnight at 30° C.
To test whether YJL105w has a role in isoprenoid metabolism, a yjl105w mutant where the entire ORF was replaced with the kanamycin resistance gene was constructed. Approximately 5×10^6 cells of the yjl105w mutant strain and a wild-type control strain (ABY363, MATα his3Δ1 leu2Δ0 lys2Δ0 ura3Δ0) were plated onto separate non-selective agar plates. The sterol biosynthetic inhibitor lovastatin (250 μg) was applied to a sterile disk on each lawn and the cells were allowed to grow overnight at 30° C.

`Nc1[nH]c(=O)ncc1F` [Flucytosine] was tested, and the “sensitivity of HES1 reporter gene induction in ABY140 compared to ABY11” value (HES1 reporter gene) was “not”.

For `Clc1ccc(COC(Cn2ccnc2)c2ccc(Cl)cc2Cl)cc1` (stereo not shown) [Econazole], the “induction of the HES1 reporter” value (HES1 reporter) was “specifically induced” and the “sensitivity of HES1 reporter gene induction in ABY140 compared to ABY11” value (HES1 reporter gene) was “more sensitive”.

In the case of `CC[C@H](C)C(=O)O[C@H]1C[C@@H](C)C=C2C=C[C@H](C)[C@H](CC[C@@H]3C[C@@H](O)CC(=O)O3)[C@H]21` [lovastatin], the “resistance of yjl105w mutant strain to treatment relative to wild-type control (ABY363)” value (yjl105w mutant strain) was “significantly more resistant”.

From patent publication US7078169B2 (priority 1999, dated 2006)
